In PubChem BioAssay (NCI):
“And” between values parts separate entries of the source, which are not always exact repeats. Identical values can stand only once.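 Where inhibition never reached the appropriate level, the endpoint shown equals the highest concentration tested. Otherwise, values were interpolated linearly from a five-concentration, 48-hour dose response in 96-well plates. At the GI50, growth is halved. The concentration for full growth arrest is given as TGI.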

Key:
Assay in all cases: DTP human tumour cell line panel, 48 h
RPMI-8226 leukemia = system: RPMI-8226 leukemia
KM12 colon = system: KM12 colon
SK-MEL-5 melanoma = system: SK-MEL-5 melanoma
OVCAR-4 ovarian = system: OVCAR-4 ovarian
SF-268 CNS = system: SF-268 CNS
SK-MEL-2 melanoma = system: SK-MEL-2 melanoma
UO-31 renal = system: UO-31 renal
MDA-MB-435 = system: MDA-MB-435
SW-620 colon = system: SW-620 colon
NCI-H460 lung = system: NCI-H460 lung

Row | SMILES | GI50 (RPMI-8226 leukemia) | TGI (RPMI-8226 leukemia) [µM] | GI50 (KM12 colon) | TGI (KM12 colon) [µM] | GI50 (SK-MEL-5 melanoma) | TGI (SK-MEL-5 melanoma) [µM] | GI50 (OVCAR-4 ovarian) | TGI (OVCAR-4 ovarian) [µM] | GI50 (SF-268 CNS) | TGI (SF-268 CNS) [µM] | GI50 (SK-MEL-2 melanoma) | TGI (SK-MEL-2 melanoma) | GI50 (UO-31 renal) | TGI (UO-31 renal) [µM] | GI50 (MDA-MB-435) | TGI (MDA-MB-435) | GI50 (SW-620 colon) | TGI (SW-620 colon) [µM] | GI50 (NCI-H460 lung) | TGI (NCI-H460 lung) [µM]
1 | COc1cc2c(cc1OC)[C@@]1(C)C(=O)c3cc4c(cc3[C@H]1N(C)C2=O)OCO4 | 33.9 µM | > 100 | > 100 µM | > 100 | 45.5 µM | > 100 | > 100 µM | > 100 | 64.6 µM | > 100 | 40.4 µM | > 100 µM | 34.8 µM | > 100 | > 100 µM | > 100 µM | 65.4 µM | > 100 | 37.7 µM | > 100
2 | O=C(O)CCC1CCC(c2cc(F)ccc2F)(S(=O)(=O)c2ccc(Cl)cc2)CC1 (stereo not given) | 71.4 µM and > 100 µM | > 100 | 34.3 µM and 85.5 µM | > 100 | 27.6 µM and > 100 µM | > 100 | 30.5 µM and > 65.6 µM | > 100 | 48.3 µM and > 100 µM | > 100 | 20.1 µM and > 100 µM | 69.7 µM and > 100 µM | 22.7 µM and > 100 µM | > 100 | 14.5 µM and 26.5 µM | 31.2 µM and > 92.7 µM | 32.2 µM and > 100 µM | > 100 | 42.5 µM and > 100 µM | > 100
3 | NC(=O)Oc1cc(OC(N)=O)cc(N(CCCl)CCCl)c1 | 3.67 µM | 53.2 | 14.1 µM | 36.7 | 6.93 µM | 52.5 | 14.8 µM | 79.3 | 1.88 µM | 29.4 | 15.6 µM | 47.8 µM | 2.57 µM | 15.9 | 11.4 µM | 28.9 µM | 7.59 µM | > 100 | 0.748 µM | 26.9
4 | COc1ccc2c(c1)Cc1c-2c(NN)nc2ccccc12 | 17.6 µM | 48.3 | 13.8 µM | > 100 | 22 µM | 58.3 | 31.1 µM | > 100 | 25.3 µM | > 100 | 33.1 µM | > 100 µM | 25.7 µM | > 100 | 3.8 µM | > 100 µM | 21.1 µM | > 100 | 14.9 µM | 69
5 | COc1cc(C(=O)n2nc(N3CCN(C)CC3)c3cc(N)ccc32)cc(OC)c1OC | 4.79 µM | 34.8 | 3.51 µM | 27.2 | 3.03 µM | 9.06 | 4.17 µM | > 100 | 4.19 µM | 88.9 | 10.4 µM | 67.5 µM | 2.87 µM | 18.1 | 1.91 µM | 5.4 µM | 5.28 µM | > 100 | 4.34 µM | > 100
6 | ON(CCc1ccccn1)Cc1ccccc1 |  | > 100 |  | > 100 |  | > 100 |  | > 100 |  | > 100 |  | > 100 µM |  | > 100 |  | > 100 µM |  | > 100 |  | > 100
